Assay results published in US12617794B2, “GABAA positive allosteric modulator compounds, methods of making, and uses thereof” (NEUROCYCLE THERAPEUTICS, INC., priority 2019, dated 2026).

Columns and labels:
[1] = Slow cooling crystallization (Example 64); format: physicochemical; conditions: slow cooling to RT
Description: The suspensions were filtered to obtain saturated solution, and it was kept in an oil bath to cool to RT. The solids obtained were characterized.
The suspensions were filtered to obtain a saturated solution, and it was kept in an oil bath which was allowed to cool to RT naturally. Any solids obtained were characterized. […] No new phosphate Form was obtained.

[2] = Mechanical treatment (grinding) of Phosphate Form A; format: physicochemical; conditions: for crystal form after grinding (XRPD): ground manually with mortar and pestle, 3-5 minutes
Description: The crystal form was unchanged after grinding.

[3] = Fast cooling crystallization (Example 63); format: physicochemical; conditions: fast cooling to 4° C. or −20° C.
Description: The suspensions were filtered to obtain saturated solution which was cooled to final temperature (4° C. or −20° C.) immediately and characterized.
The suspensions were filtered to obtain saturated solutions which were immediately cooled to final temperature (4° C. or −20° C.). Any solids obtained were characterized.

[4] = Solid-state stability of Phosphate Form A at 40° C./75% RH and 25° C./95% RH (Example 36); format: physicochemical; conditions: up to two weeks
[5] = Pharmacokinetics in rats (Example 17); format: in vivo, Sprague-dawley rats; conditions: rat, PO 2 mg/kg, mean
Description: To evaluate the pharmacokinetics (PK) of Phosphate Polymorphic Form A, suspensions or solutions were dosed by either oral gavage (0.5% methyl cellulose) or IV (60% PEG400/40% saline) in normal, healthy, male Sprague-dawley rats with serial blood collection focused on the first 48 hours of exposure. Rats were dosed with vehicle or test compounds at 1 mg/kg (IV) or 2 mg/kg (PO). Approximately 0.2 mL blood was collected at each time point. All blood samples were collected jugular vein puncture. All blood samples were transferred into plastic microcentrifuge tubes containing 5 μL of EDTA-K2 as anti-coagulant or pre-chilled commercial EDTA-K2 tubes and placed on wet ice until centrifugation. Harvested blood samples were centrifuged within 30 min of collection at 7,000 rpm for 10 minutes. The extracts were analyzed for compound concentration by LC/MS/MS. Data were analyzed with Phoenix WinNonlin 6.3 using the IV-Noncompartmental model 201 (IV bolus input) and PO-Noncompartmental model 200 (extravascular input) methods.

[6] = Slurry and stability study of phosphate (30.4, Example 35); format: physicochemical; conditions: IPAC, EA
Description: The suspensions were filtered and characterized by XRPD.

[7] = Intrinsic dissolution rate in SGF (Example 16); format: physicochemical; conditions: 37° C., 100 rpm, linear scope within 2 to 120 min
Description: About 100 mg of Free Base Polymorphic Form A or Phosphate Polymorphic Form A was weighed into the intrinsic dissolution apparatus and the sample compressed for 1 minute with a compression force of ˜4 MPa to form a compacted pellet within the stainless-steel die. All loose powder was removed from the surface of the die. The intrinsic dissolution shaft was connected with the stainless-steel die and tightened so only one surface of the pellet was exposed (surface area=0.496 cm^2). The shaft in the spindle was adjusted to ensure the exposed surface of the compacted tablet was ˜3.8 cm from the bottom of the vessel when lowered. The temperature of chamber water was set at 37° C.±0.5° C., the shaft rotation at 100 rpm and the sampling time points at 2, 5, 10, 15, 30, 45, 60, 120 min. SGF was used as dissolution medium (900 mL). At each time point, solution samples were filtered, and the supernatant was analyzed by HPLC-UV.

[8] = Approximate solubility study of TPA023B phosphate (Example 25); format: physicochemical; conditions: RT, listed as TPA023B phosphate
Description: The total amount of solvent was recorded to calculate the approximate solubility in these solvents.

[9] = Hygroscopicity by dynamic vapor sorption (DVS), Example 4; format: physicochemical
Description: The hygroscopicity of Phosphate Polymorph Form A was measured by Dynamic vapor sorption (DVS). […] After DVS, XRPD confirmed that the crystalline form was retained (FIG. 19).

[10] = Liquid vapor diffusion (Example 61); format: physicochemical; conditions: RT, 6 days
Description: After filtration, the filtrate in a small vial was put into a bigger vial containing anti-solvent. The bigger vial was left at RT for days. If precipitation occurred, solid was collected and characterized.
After filtration, the filtrate was transferred into a small vial, which was then placed inside a bigger vial which contained anti-solvent. The bigger vial was left at RT for 6 days. If precipitation occurred, solid was collected and characterized. No new phosphate form was obtained.

[11] = DVS of TPA023B Phosphate Form A (Example 33); format: physicochemical; conditions: for hygroscopicity: DVS; for crystal form after DVS test: XRPD
[12] = solvent 2-methyl tetrahydrofuran

CC(C)(O)c1cnn2c(-c3ccc(F)c(-c4c(F)cccc4C#N)c3)cnc2n1 [Phosphate Polymorphic Form A, 2′,6-difluoro-5′-[3-(1-hydroxy-1-methylethyl)-imidazo[1,2-b][1,2,4]triazin-7-yl]biphenyl-2-carbonitrile]
Result (solid form obtained) ([1]; solvent 2-butanone): Phosphate Form A
Result (solid form obtained) [1, 12]: No solid
Result (solid form obtained) ([1]; solvent ACN): Phosphate Form A
Result (solid form obtained) ([1]; solvent Anisole): No solid
Result (solid form obtained) ([1]; solvent BAC): Phosphate Form A
Result (solid form obtained) ([1]; solvent Butanol): Free Base Form E
Result (solid form obtained) ([1]; solvent EA): No solid
Result (solid form obtained) ([1]; solvent Isoamyl alcohol): Free Base Form E
Result (solid form obtained) ([1]; solvent MAC): No solid
Result (solid form obtained) ([1]; solvent THF): No solid
crystallinity after grinding [2]: decreased
crystal form after grinding (XRPD) ([2]; listed as Phosphate Form A): unchanged
crystal form after grinding (XRPD) ([2]; listed as TPA023B Phosphate Form A): remained unchanged
crystal form after grinding (XRPD) ([2]; listed as phosphate Form A): no change
Result (solid form obtained) ([3]; solvent 1,4-dioxane): No solid
Result (solid form obtained) ([3]; solvent 1-methyl-2-pyrrolidone): No solid
Result (solid form obtained) ([3]; solvent 2-butanone): Phosphate Form A
Result (solid form obtained) [3, 12]: No solid
Result (solid form obtained) ([3]; solvent 4-methyl-2-pentanone): Phosphate Form A
Result (solid form obtained) ([3]; solvent ACN): Phosphate Form A
Result (solid form obtained) ([3]; solvent Acetone): Phosphate Form A
Result (solid form obtained) ([3]; solvent Anisole): No solid
Result (solid form obtained) ([3]; solvent BAC): Phosphate Form A
Result (solid form obtained) ([3]; solvent Butanol): Freebase form A
Result (solid form obtained) ([3]; solvent DMF): No solid
Result (solid form obtained) ([3]; solvent DMSO): No solid
Result (solid form obtained) ([3]; solvent EA): Phosphate Form A
Result (solid form obtained) ([3]; solvent Ethyl formate): Phosphate Form A
Result (solid form obtained) ([3]; solvent Isoamyl alcohol): New Free Base pattern K
Result (solid form obtained) ([3]; solvent MAC): Phosphate Form A
Result (solid form obtained) ([3]; solvent MEK): Phosphate Form A
Result (solid form obtained) ([3]; solvent Propyl acetate): Phosphate Form A
Result (solid form obtained) ([3]; solvent THF): No solid
crystal form after storage ([4]; 25° C./95% RH): remained unchanged
crystal form after storage ([4]; 40° C./75% RH): remained unchanged
AUCExtra (%) [5]: 6.25%
crystal form after slurry (XRPD) ([6]; 100 mg slurried in 2 mL THF, 2-Me THF, acetone and ACN at RT): remains unchanged
stability in solvents ([6]; THF, 2-Me-THF, Acetone, MTBE or ACN): stable
intrinsic dissolution rate [7]: 0.184 mg·cm^−2min^−1
Solubility (mg/mL) ([8]; DMF): relatively high solubility
Solubility (mg/mL) ([8]; DMSO): relatively high solubility
crystalline form after DVS (XRPD) [9]: retained
reversible mass increase (DVS) [9]: about 1.08%
Result (solid form obtained) ([10]; solvent 2-methyl tetrahydrofuran, anti-solvent Chloroform): Phosphate Form A
Result (solid form obtained) ([10]; solvent 2-methyl tetrahydrofuran, anti-solvent Methyl cyclohexane): Phosphate Form A
Result (solid form obtained) ([10]; solvent 2-methyl tetrahydrofuran, anti-solvent xylene): Phosphate Form A
Result (solid form obtained) ([10]; solvent DMAC, anti-solvent DCM): No solid
Result (solid form obtained) ([10]; solvent DMAC, anti-solvent EA): No solid
Result (solid form obtained) ([10]; solvent DMAC, anti-solvent Isopropyl ether): No solid
Result (solid form obtained) ([10]; solvent Diox, anti-solvent ACN): No solid
Result (solid form obtained) ([10]; solvent Diox, anti-solvent BAC): Phosphate Form A
Result (solid form obtained) ([10]; solvent Diox, anti-solvent DCM): Phosphate Form A
Result (solid form obtained) ([10]; solvent Diox, anti-solvent Heptane): Phosphate Form A
Result (solid form obtained) ([10]; solvent Diox, anti-solvent Isopropyl ether): Phosphate Form A
Result (solid form obtained) ([10]; solvent MEK, anti-solvent Cyclohexanone): Phosphate Form A
Result (solid form obtained) ([10]; solvent MEK, anti-solvent DCM): Phosphate Form A
Result (solid form obtained) ([10]; solvent MEK, anti-solvent MAC): No solid
Result (solid form obtained) ([10]; solvent MEK, anti-solvent MTBE): No solid
Result (solid form obtained) ([10]; solvent MEK, anti-solvent Trichloromethane): Phosphate Form A
Result (solid form obtained) ([10]; solvent NMP, anti-solvent Chloroform): No solid
Result (solid form obtained) ([10]; solvent NMP, anti-solvent Isopropyl ether): No solid
Result (solid form obtained) ([10]; solvent NMP, anti-solvent MEK): No solid
Result (solid form obtained) ([10]; solvent THF, anti-solvent ACN): No solid
Result (solid form obtained) ([10]; solvent THF, anti-solvent EA): Phosphate Form A
Result (solid form obtained) ([10]; solvent THF, anti-solvent N-pentane): Phosphate Form A
Result (solid form obtained) ([10]; solvent THF, anti-solvent Toluene): Phosphate Form A
Result (solid form obtained) ([10]; solvent THF, anti-solvent Trichloromethane): No solid
hygroscopicity ([11]; listed as Phosphate Form A): slightly hygroscopic
hygroscopicity ([11]; listed as phosphate Form A): slight hygroscopicity
crystal form after DVS test ([11]; listed as Phosphate Form A): remained unchanged
crystal form after DVS test ([11]; listed as phosphate Form A): no change
water absorbed (DVS) ([11]; from 0 to 80% RH): 0.68%
